Molecules are shown by their SMILES.

Here are results for 27 compounds from US8129417B2, “Substituted octahydrocyclopenta[C]pyrrol-4-amines as calcium channel blockers” (Abbott Laboratories, priority 2008, dated 2012).

human Cav2.2, sequence (Q00975 whole entry): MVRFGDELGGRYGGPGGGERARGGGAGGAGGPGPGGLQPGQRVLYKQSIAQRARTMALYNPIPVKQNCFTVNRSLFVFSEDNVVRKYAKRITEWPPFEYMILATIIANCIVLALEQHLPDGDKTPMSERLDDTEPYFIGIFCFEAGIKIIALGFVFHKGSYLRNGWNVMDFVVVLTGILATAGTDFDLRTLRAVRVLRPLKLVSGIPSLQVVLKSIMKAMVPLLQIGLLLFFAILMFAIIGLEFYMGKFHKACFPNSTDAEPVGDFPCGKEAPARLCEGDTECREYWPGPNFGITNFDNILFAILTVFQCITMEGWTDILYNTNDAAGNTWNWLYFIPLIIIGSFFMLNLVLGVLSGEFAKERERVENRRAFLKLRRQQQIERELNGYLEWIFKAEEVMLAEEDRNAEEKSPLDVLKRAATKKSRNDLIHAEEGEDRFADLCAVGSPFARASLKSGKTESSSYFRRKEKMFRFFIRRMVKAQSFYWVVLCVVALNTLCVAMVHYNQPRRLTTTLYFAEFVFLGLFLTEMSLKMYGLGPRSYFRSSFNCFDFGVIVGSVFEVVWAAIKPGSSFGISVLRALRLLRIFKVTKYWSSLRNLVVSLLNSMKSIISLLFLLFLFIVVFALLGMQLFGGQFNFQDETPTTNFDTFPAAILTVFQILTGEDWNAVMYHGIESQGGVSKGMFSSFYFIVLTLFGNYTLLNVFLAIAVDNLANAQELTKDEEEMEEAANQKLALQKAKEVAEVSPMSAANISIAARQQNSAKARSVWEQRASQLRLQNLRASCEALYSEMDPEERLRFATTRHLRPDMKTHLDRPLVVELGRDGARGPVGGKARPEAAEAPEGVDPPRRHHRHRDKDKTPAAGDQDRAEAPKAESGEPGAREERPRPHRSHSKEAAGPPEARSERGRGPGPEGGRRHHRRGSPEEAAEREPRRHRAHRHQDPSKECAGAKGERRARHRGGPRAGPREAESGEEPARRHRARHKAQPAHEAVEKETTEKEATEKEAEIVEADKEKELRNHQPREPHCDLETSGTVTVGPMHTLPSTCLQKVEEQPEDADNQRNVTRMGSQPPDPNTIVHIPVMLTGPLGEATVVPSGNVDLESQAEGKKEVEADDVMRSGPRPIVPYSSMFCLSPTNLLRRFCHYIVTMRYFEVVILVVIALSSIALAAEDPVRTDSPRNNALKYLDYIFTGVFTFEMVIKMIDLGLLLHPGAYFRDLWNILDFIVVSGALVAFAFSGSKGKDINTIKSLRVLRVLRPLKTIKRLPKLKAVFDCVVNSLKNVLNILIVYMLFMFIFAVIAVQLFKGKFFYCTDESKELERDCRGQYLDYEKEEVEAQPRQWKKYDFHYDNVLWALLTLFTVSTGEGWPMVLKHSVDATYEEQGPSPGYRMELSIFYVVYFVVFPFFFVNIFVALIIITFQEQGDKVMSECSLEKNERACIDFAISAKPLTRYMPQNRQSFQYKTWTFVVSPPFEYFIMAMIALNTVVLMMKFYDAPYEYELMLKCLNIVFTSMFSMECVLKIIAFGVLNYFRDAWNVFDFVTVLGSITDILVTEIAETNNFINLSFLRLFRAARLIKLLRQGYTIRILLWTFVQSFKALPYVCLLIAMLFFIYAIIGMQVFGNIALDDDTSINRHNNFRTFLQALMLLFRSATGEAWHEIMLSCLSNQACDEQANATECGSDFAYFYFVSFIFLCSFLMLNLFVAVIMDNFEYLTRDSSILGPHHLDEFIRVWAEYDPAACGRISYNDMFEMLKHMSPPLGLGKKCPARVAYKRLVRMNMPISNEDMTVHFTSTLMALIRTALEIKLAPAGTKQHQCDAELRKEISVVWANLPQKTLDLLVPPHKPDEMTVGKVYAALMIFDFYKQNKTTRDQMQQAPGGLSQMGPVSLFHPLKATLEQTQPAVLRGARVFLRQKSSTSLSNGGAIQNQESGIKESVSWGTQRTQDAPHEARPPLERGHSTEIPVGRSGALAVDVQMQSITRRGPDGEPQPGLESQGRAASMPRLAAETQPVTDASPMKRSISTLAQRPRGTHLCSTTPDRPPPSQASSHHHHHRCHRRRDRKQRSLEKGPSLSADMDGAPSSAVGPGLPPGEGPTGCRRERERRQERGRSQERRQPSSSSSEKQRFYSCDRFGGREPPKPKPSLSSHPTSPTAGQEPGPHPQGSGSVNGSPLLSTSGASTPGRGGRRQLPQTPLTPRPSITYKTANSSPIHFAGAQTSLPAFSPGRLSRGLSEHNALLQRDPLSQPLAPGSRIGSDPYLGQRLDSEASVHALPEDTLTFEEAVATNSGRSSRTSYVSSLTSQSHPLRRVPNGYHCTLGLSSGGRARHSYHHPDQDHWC
human Cav2.2, sequence (P54289 25-946 partner limits assumed): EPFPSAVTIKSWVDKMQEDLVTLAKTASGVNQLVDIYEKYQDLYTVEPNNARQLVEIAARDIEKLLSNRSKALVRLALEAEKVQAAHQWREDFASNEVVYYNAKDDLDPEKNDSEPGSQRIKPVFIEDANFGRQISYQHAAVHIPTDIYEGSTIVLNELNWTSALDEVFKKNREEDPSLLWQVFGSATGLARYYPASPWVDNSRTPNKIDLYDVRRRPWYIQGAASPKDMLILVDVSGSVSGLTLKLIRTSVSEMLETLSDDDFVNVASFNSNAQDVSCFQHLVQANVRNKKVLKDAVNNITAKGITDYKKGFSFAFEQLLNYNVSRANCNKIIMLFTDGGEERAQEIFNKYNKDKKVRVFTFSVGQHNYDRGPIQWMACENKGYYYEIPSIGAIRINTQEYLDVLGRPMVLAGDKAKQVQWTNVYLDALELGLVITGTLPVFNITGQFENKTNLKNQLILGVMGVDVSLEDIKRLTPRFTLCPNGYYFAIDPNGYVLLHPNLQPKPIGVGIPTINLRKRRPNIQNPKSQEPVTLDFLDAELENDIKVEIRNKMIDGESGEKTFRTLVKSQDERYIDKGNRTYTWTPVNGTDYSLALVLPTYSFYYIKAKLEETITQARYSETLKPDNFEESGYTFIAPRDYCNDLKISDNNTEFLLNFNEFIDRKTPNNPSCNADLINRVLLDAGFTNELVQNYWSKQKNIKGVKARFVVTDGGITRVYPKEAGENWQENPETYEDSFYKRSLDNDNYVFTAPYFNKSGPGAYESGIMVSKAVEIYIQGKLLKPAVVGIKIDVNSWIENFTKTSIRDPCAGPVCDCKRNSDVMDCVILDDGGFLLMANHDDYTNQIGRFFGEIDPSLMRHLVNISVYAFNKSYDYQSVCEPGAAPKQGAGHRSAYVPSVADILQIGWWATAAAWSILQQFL
human Cav2.2, sequence (P54289 947-1103 partner limits assumed): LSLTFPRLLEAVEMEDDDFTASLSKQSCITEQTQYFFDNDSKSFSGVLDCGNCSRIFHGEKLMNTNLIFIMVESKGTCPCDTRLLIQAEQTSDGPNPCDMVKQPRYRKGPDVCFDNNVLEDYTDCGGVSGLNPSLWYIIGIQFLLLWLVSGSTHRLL
human Cav2.2, sequence (P54284 whole entry partner): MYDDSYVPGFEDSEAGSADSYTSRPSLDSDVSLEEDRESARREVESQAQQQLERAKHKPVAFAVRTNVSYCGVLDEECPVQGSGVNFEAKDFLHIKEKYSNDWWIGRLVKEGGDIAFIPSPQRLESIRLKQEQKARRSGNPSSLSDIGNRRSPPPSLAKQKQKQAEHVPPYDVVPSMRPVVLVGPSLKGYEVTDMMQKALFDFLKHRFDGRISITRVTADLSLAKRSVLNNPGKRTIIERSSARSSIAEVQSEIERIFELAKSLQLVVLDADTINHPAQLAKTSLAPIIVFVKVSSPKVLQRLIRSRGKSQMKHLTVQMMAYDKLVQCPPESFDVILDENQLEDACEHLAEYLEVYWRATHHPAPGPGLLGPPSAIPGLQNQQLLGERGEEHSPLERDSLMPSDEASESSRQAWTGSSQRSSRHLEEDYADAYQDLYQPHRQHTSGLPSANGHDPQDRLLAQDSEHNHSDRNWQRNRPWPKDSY

In one experiment the target is human Cav2.2 (Homo sapiens, UniProt Q00975). The experiment in a line: Assessment of calcium channel activity using FLIPR (Ca2+ influx in IMR32 cells). It counts as cell-based. As to conditions: 3 minute pre-incubation with compound (*), 2 μM nifedipine, depolarized with 80 mM KCl. The gist of the method:
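IC50 came from sigmoidal non-linear regression of percent inhibition, relative to uninhibited activity, across compound concentrations. Calcium influx was measured by FLIPR in IMR32 cells plated at 1-1.2×10^5 cells/well and cultured 48 h at 37 °C.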
Turning to `CC(C)C(C(=O)N[C@H]1CC[C@@H]2CN(Cc3ccccc3C(F)(F)F)C[C@@H]21)c1ccccc1` (stereo partly drawn) [Example 99, 3-methyl-2-phenyl-N-{(3aR,4S,6aS)-2-[2-(trifluoromethyl)benzyl]octahydrocyclopenta[c]pyrrol-4-yl}butanamide], the IC50 (as a rule, the point on the concentration scale where inhibition reaches its midpoint) is 4800 nM. In the case of `CC(Cc1ccccc1)C(=O)N[C@H]1CC[C@@H]2CN(Cc3ccccc3)C[C@@H]21` (stereo partly drawn) [Example 51, N-[(3aR,4S,6aS)-2-benzyloctahydrocyclopenta[c]pyrrol-4-yl]-2-methyl-3-phenylpropanamide], the IC50 was 15200 nM.

The same experiment, now with this note: 60 minute pre-incubation with compound, 2 μM nifedipine, depolarized with 80 mM KCl.
Regarding `CC[C@H](C)[C@@H](C(=O)N[C@@H]1CC[C@H]2CN(S(=O)(=O)c3cccc(C(F)(F)F)c3)C[C@H]21)N(C)C(=O)OC(C)(C)C` [Example 334, tert-butyl methyl((2S,3S)-3-methyl-1-oxo-1-((3aS,4R,6aR)-2-(3-(trifluoromethyl)phenylsulfonyl)octahydrocyclopenta[c]pyrrol-4-ylamino)pentan-2-yl)carbamate], the IC50 was 690 nM. For `CC(C)C[C@@H](C(=O)N[C@H]1CC[C@@H]2CN(S(=O)(=O)c3cccc(C(F)(F)F)c3)C[C@@H]21)N(C)C` [Example 497, N^2,N^2-dimethyl-N^1-((3aR,4S,6aS)-2-{[3-(trifluoromethyl)phenyl]sulfonyl}octahydrocyclopenta[c]pyrrol-4-yl)-L-leucinamide], the IC50 is 570 nM. On to `CCC[C@H](NC(=O)C(C)(C)C)C(=O)N[C@H]1CC[C@@H]2CN(Cc3ccc(C(F)(F)F)cc3)C[C@@H]21` [Example 528, N^2-(2,2-dimethylpropanoyl)-N^1-{(3aR,4S,6aS)-2-[4-(trifluoromethyl)benzyl]octahydrocyclopenta[c]pyrrol-4-yl}-L-norvalinamide], for which the IC50 is 7230 nM. With `CN(C(=O)OC(C)(C)C)[C@@H](CC(C)(C)C)C(=O)N[C@H]1CC[C@@H]2CN(Cc3ccccc3)C[C@@H]21` [Example 247, tert-butyl(S)-1-((3aR,4S,6aS)-2-benzyloctahydrocyclopenta[c]pyrrol-4-ylamino)-4,4-dimethyl-1-oxopentan-2-yl(methyl)carbamate], the IC50 was 3620 nM. Take `CCC[C@H](NC)C(=O)N[C@H]1CC[C@@H]2CN(S(=O)(=O)c3ccc(-c4ccccc4)cc3)C[C@@H]21` [Example 544, N^1-[(3aR,4S,6aS)-2-(1,1′-biphenyl-4-ylsulfonyl)octahydrocyclopenta[c]pyrrol-4-yl]-N^2-methyl-L-norvalinamide]: the IC50 stood at 2150 nM. For the compound `CCC[C@H](NC)C(=O)N1C[C@H]2CC[C@H](NC(=O)C(c3ccc(F)cc3)c3ccc(F)cc3)[C@H]2C1` [Example 460, 2,2-bis(4-fluorophenyl)-N-[(3aR,4S,6aS)-2-(N-methyl-L-norvalyl)octahydrocyclopenta[c]pyrrol-4-yl]acetamide], the half-inhibitory concentration (IC50) worked out at 2690 nM. As to `CN[C@@H](CC(C)C)C(=O)N[C@@H]1CC[C@H]2CN(S(=O)(=O)c3cccc(F)c3)C[C@H]21` [Example 443, N^1-{(3aS,4R,6aR)-2-[(3-fluorophenyl)sulfonyl]octahydrocyclopenta[c]pyrrol-4-yl}-N^2-methyl-L-leucinamide], the IC50 stood at 7680 nM.

Turning to `CN[C@H](C(=O)N[C@H]1CC[C@@H]2CN(S(=O)(=O)c3ccc(F)cc3)C[C@@H]21)C(C)C` [Example 452, N^1-{(3aR,4S,6aS)-2-[(4-fluorophenyl)sulfonyl]octahydrocyclopenta[c]pyrrol-4-yl}-N^2-methyl-L-valinamide], the IC50 was 9120 nM. On the same count and under the same terms, the value for `O=C(N[C@H]1CC[C@H]2CN(Cc3cccc(C(F)(F)F)c3)C[C@H]21)C(O)C1CCCCC1` (stereo partly drawn) [Example 237, 2-cyclohexyl-2-hydroxy-N-{(3aS,4S,6aR)-2-[3-(trifluoromethyl)benzyl]octahydrocyclopenta[c]pyrrol-4-yl}acetamide] was 1880 nM; that for `CCC[C@H](NC)C(=O)N[C@@H]1CC[C@H]2CN(S(=O)(=O)c3ccc(C(F)(F)F)cc3)C[C@H]21` [Example 404, N^2-methyl-N^1-((3aS,4R,6aR)-2-{[4-(trifluoromethyl)phenyl]sulfonyl}octahydrocyclopenta[c]pyrrol-4-yl)-L-norvalinamide] was 1020 nM. As to `O=S(=O)(c1ccc(C(F)(F)F)cc1)N1C[C@H]2CC[C@H](NCC3CC3)[C@H]2C1` [Example 292, (3aR,4S,6aS)—N-(cyclopropylmethyl)-2-{[4-(trifluoromethyl)phenyl]sulfonyl}octahydrocyclopenta[c]pyrrol-4-amine], the half-maximal inhibitory concentration (IC50) amounted to 3910 nM. The same measure, in the same setting: with `CN(C(=O)OC(C)(C)C)C(Cc1ccccc1)C(=O)NC1CCC2CN(S(=O)(=O)c3ccc(C(F)(F)F)cc3)CC21` [Example 258, N-(tert-butoxycarbonyl)-N-methyl-N-((3aR,4S,6aS)-2-{[4-(trifluoromethyl)phenyl]sulfonyl}octahydrocyclopenta[c]pyrrol-4-yl)-1-phenylalaninamide] the figure was 850 nM; with `CCCC[C@@H](C(=O)N[C@H]1CC[C@@H]2CN(Cc3ccccc3)C[C@@H]21)N(C)C(=O)OC(C)(C)C` [Example 227, tert-butyl(S)-1-((3aR,4S,6aS)-2-benzyloctahydrocyclopenta[c]pyrrol-4-ylamino)-1-oxohexan-2-yl(methyl)carbamate], 3170 nM; with `CN[C@@H](CC(C)C)C(=O)N1C[C@H]2CC[C@H](N(C(C)C)S(=O)(=O)c3cccc(C(F)(F)F)c3)[C@H]2C1` [Example 557, N-isopropyl-N-[(3aR,4S,6aS)-2-(N-methyl-L-leucyl)octahydrocyclopenta[c]pyrrol-4-yl]-3-(trifluoromethyl)benzenesulfonamide], 1140 nM. For `O=C(N[C@H]1CC[C@H]2CN(Cc3cccc(F)c3)C[C@H]21)C(C1CCCCC1)C1CCCCC1` [Example 64, 2,2-dicyclohexyl-N-[(3aS,4S,6aR)-2-(3-fluorobenzyl)octahydrocyclopenta[c]pyrrol-4-yl]acetamide], the IC50 came out at 1300 nM. Take `CC(C)C[C@H](NS(C)(=O)=O)C(=O)N[C@H]1CC[C@@H]2CN(Cc3ccccc3)C[C@@H]21` [Example 242, N^1-[(3aR,4S,6aS)-2-benzyloctahydrocyclopenta[c]pyrrol-4-yl]-N^2-(methylsulfonyl)-L-leucinamide]: the IC50 was 7920 nM. The same measure, in the same setting: with `CCCC[C@H](NC)C(=O)N[C@H]1CC[C@@H]2CN(S(=O)(=O)c3ccc(C(F)(F)F)cc3)C[C@@H]21` [Example 418, N^2-methyl-N^1-((3aR,4S,6aS)-2-{[4-(trifluoromethyl)phenyl]sulfonyl}octahydrocyclopenta[c]pyrrol-4-yl)-L-norleucinamide] the figure was 820 nM; with `CN(C(=O)OC(C)(C)C)[C@@H](CC(C)(C)C)C(=O)N[C@H]1CC[C@@H]2CN(S(=O)(=O)c3ccc(C(F)(F)F)cc3)C[C@@H]21` [Example 337, tert-butyl(S)-4,4-dimethyl-1-oxo-1-((3aR,4S,6aS)-2-(4-(trifluoromethyl)phenylsulfonyl)octahydrocyclopenta[c]pyrrol-4-ylamino)pentan-2-yl(methyl)carbamate], 780 nM; with `CN[C@@H](CC(C)(C)C)C(=O)N[C@H]1CC[C@@H]2CN(S(=O)(=O)c3ccc(C(F)(F)F)cc3Cl)C[C@@H]21` [Example 431, N^1-((3aR,4S,6aS)-2-{[2-chloro-4-(trifluoromethyl)phenyl]sulfonyl}octahydrocyclopenta[c]pyrrol-4-yl)-N^2,4-dimethyl-L-leucinamide], 580 nM. For `CN(C(=O)OC(C)(C)C)[C@@H](CC(C)(C)C)C(=O)N[C@H]1CC[C@@H]2CN(S(=O)(=O)c3cccc(C(F)(F)F)c3)C[C@@H]21` [Example 336, tert-butyl(S)-4,4-dimethyl-1-oxo-1-((3aR,4S,6aS)-2-(3-(trifluoromethyl)phenylsulfonyl)octahydrocyclopenta[c]pyrrol-4-ylamino)pentan-2-yl(methyl)carbamate], the IC50 was determined as 480 nM. The same measure, in the same setting: the value for `CC(C)(C)C[C@H](NC1CC1)C(=O)N[C@H]1CC[C@@H]2CN(S(=O)(=O)c3ccc(C(F)(F)F)cc3)C[C@@H]21` [Example 499, N^2-cyclopropyl-4-methyl-N^1-((3aR,4S,6aS)-2-{[4-(trifluoromethyl)phenyl]sulfonyl}octahydrocyclopenta[c]pyrrol-4-yl)-L-leucinamide] was 2700 nM. For `CC(C)(C)OC(=O)N1Cc2ccccc2C[C@H]1C(=O)N[C@H]1CC[C@@H]2CN(S(=O)(=O)c3cccc(C(F)(F)F)c3)C[C@@H]21` [Example 275, tert-butyl(3S)-3-{[((3aR,4S,6aS)-2-{[3-(trifluoromethyl)phenyl]sulfonyl}octahydrocyclopenta[c]pyrrol-4-yl)amino]carbonyl}-3,4-dihydroisoquinoline-2(1H)-carboxylate], the IC50 worked out at 920 nM.

`CC(C)(C)C[C@H](NC1CCC1)C(=O)N[C@H]1CC[C@@H]2CN(S(=O)(=O)c3ccc(C(F)(F)F)cc3)C[C@@H]21` [Example 504, N^2-cyclobutyl-4-methyl-N^1-((3aR,4S,6aS)-2-{[4-(trifluoromethyl)phenyl]sulfonyl}octahydrocyclopenta[c]pyrrol-4-yl)-L-leucinamide]: the IC50 came to 910 nM. With `CC(C)(C)C[C@H](NC1CCCC1)C(=O)N[C@H]1CC[C@@H]2CN(C(=O)[C@H](CC(C)(C)C)NC3CCCC3)C[C@@H]21` [Example 508, N^2-cyclopentyl-N^1-[(3aR,4S,6aS)-2-(N-cyclopentyl-4-methyl-L-leucyl)octahydrocyclopenta[c]pyrrol-4-yl]-4-methyl-L-leucinamide], the IC50 was 8600 nM. `CC(C)(C)OC(=O)N1CCCC[C@H]1C(=O)N[C@H]1CC[C@@H]2CN(S(=O)(=O)c3cccc(C(F)(F)F)c3)C[C@@H]21` [Example 274, tert-butyl(2S)-2-{[((3aR,4S,6aS)-2-{[3-(trifluoromethyl)phenyl]sulfonyl}octahydrocyclopenta[c]pyrrol-4-yl)amino]carbonyl}piperidine-1-carboxylate]: the IC50 is 1380 nM.
